US7939531B2, “Pyrrolopyrazine kinase inhibitors” (Roche Palo Alto, priority 2008, dated 2011)
Counter-ions that a name gives are not always drawn.

Test system: not given
Test: not given

SMILES	melting point
CC1=NCCN1c1cnc2[nH]cc(C(=O)C(C)(C)C)c2n1 [Compound I-109, 2,2-Dimethyl-1-[2-(2-methyl-4,5-dihydro-imidazol-1-yl)-5H-pyrrolo[2,3-b]pyrazin-7-yl]-propan-1-one]	235 to 236 °C
CC(C)(C)C(=O)c1c[nH]c2ncc(-n3ccnc3)nc12 [Compound I-107, 1-(2-Imidazol-1-yl-5H-pyrrolo[2,3-b]pyrazin-7-yl)-2,2-dimethyl-propan-1-one]	215 to 217 °C
CCOC(=O)c1cc2cc(C3=C(c4cnc5[nH]cc(C(=O)C(C)(C)C)c5n4)CCC3)ccc2[nH]1 [Compound I-39, 5-{2-[7-(2,2-Dimethyl-propionyl)-5H-pyrrolo[2,3-b]pyrazin-2-yl]-cyclopent-1-enyl}-1H-indole-2-carboxylic acid ethyl ester]	278 to 280 °C
CNC1CCCN(c2cnc3[nH]cc(C(=O)NC(C)C)c3n2)C1 (stereo not drawn) [Compound I-8, 2-(3-Methylamino-piperidin-1-yl)-5H-pyrrolo[2,3-b]pyrazine-7-carboxylic acid isopropylamide; compound with trifluoro-acetic acid]	54 to 64 °C
CC(C)(C)C(=O)c1c[nH]c2ncc(-n3ccc4ccccc43)nc12 [Compound I-97, 1-(2-Indol-1-yl-5H-pyrrolo[2,3-b]pyrazin-7-yl)-2,2-dimethyl-propan-1-one]	205 to 207 °C
CC(C)(C)C(=O)c1c[nH]c2ncc(-c3cn(Cc4ccccc4)nn3)nc12 [Compound I-105, 1-[2-(1-Benzyl-1H-[1,2,3]triazol-4-yl)-5H-pyrrolo[2,3-b]pyrazin-7-yl]-2,2-dimethyl-propan-1-one]	235 to 237 °C
Cc1nccn1-c1cnc2[nH]cc(C(=O)C(C)(C)C)c2n1 [Compound I-108, 2,2-Dimethyl-1-[2-(2-methyl-imidazol-1-yl)-5H-pyrrolo[2,3-b]pyrazin-7-yl]-propan-1-one]	247 to 249 °C
CC(C)(C)C(=O)c1c[nH]c2ncc(-c3cn(S(=O)(=O)c4ccccc4)c4ccccc34)nc12 [Compound I-1, 1-[2-(1-Benzenesulfonyl-1H-indol-3-yl)-5H-pyrrolo[2,3-b]pyrazin-7-yl]-2,2-dimethyl-propan-1-one]	267 to 268 °C
CCc1nccn1-c1cnc2[nH]cc(C(=O)C(C)(C)C)c2n1 [Compound I-110, 1-[2-(2-Ethyl-imidazol-1-yl)-5H-pyrrolo[2,3-b]pyrazin-7-yl]-2,2-dimethyl-propan-1-one]	276 to 278 °C
CCC(CC)NC(=O)c1cc(-c2cnc3[nH]cc(C(=O)C4(C)CCCCC4)c3n2)cs1 (as salt: hydrochloride) [Compound I-43, 4-[7-(1-Methyl-cyclohexanecarbonyl)-5H-pyrrolo[2,3-b]pyrazin-2-yl]-thiophene-2-carboxylic acid (1-ethyl-propyl)-amide]	273 to 275 °C
CC1(C(=O)c2c[nH]c3ncc(-c4cccs4)nc23)CCCCC1 [Compound I-106, (1-Methyl-cyclohexyl)-(2-thiophen-2-yl-5H-pyrrolo[2,3-b]pyrazin-7-yl)-methanone]	224 to 225 °C
CC(C)NC(=O)c1c[nH]c2ncc(N3CCCC(N(C)C(=O)OC(C)(C)C)C3)nc12 (stereo not drawn) [Compound I-7, [1-(7-Isopropylcarbamoyl-5H-pyrrolo[2,3-b]pyrazin-2-yl)-piperidin-3-yl]-methyl-carbamic acid tert-butyl ester]	251 to 252 °C

The remaining lines, values ahead:

melting point	SMILES
207 to 209 °C	CC(C)(C)C(=O)c1c[nH]c2ncc(C3=C(c4ccccc4)CCC3)nc12 [Compound I-38, 2,2-Dimethyl-1-[2-(2-phenyl-cyclopent-1-enyl)-5H-pyrrolo[2,3-b]pyrazin-7-yl]-propan-1-one]
281 to 282 °C	CC(C)(C)C(=O)c1c[nH]c2ncc(-c3cncs3)nc12 [Compound I-121, 2,2-Dimethyl-1-(2-thiazol-5-yl-5H-pyrrolo[2,3-b]pyrazin-7-yl)-propan-1-one]
193.3 to 199.3 °C	CC(C)(C)C(=O)c1c[nH]c2ncc(-c3cn(C4CCCC4)nn3)nc12 [Compound I-12, 1-[2-(1-Cyclopentyl-1H-[1,2,3]triazol-4-yl)-5H-pyrrolo[2,3-b]pyrazin-7-yl]-2,2-dimethyl-propan-1-one]
> 300 °C	CC(C)(C)C(=O)c1c[nH]c2ncc(-c3ccc(C(=O)NC4CCOCC4)s3)nc12 [Compound I-32, 5-[7-(2,2-Dimethyl-propionyl)-5H-pyrrolo[2,3-b]pyrazin-2-yl]-thiophene-2-carboxylic acid (tetrahydro-pyran-4-yl)-amide]
226 to 228 °C	CN(C)C1CCN(c2cc(-c3cnc4[nH]cc(C(=O)C(C)(C)C)c4n3)ccn2)C1 (stereo not drawn) [Compound I-14, 1-{2-[2-(3-Dimethylamino-pyrrolidin-1-yl)-pyridin-4-yl]-5H-pyrrolo[2,3-b]pyrazin-7-yl}-2,2-dimethyl-propan-1-one]
220 to 221 °C	CC1CCCN1c1cc(-c2cnc3[nH]cc(C(=O)C(C)(C)C)c3n2)ccn1 (stereo not drawn) [Compound I-16, 2,2-Dimethyl-1-{2-[2-(2-methyl-pyrrolidin-1-yl)-pyridin-4-yl]-5H-pyrrolo[2,3-b]pyrazin-7-yl}-propan-1-one]
> 300 °C	CC(C)(C)C(=O)c1c[nH]c2ncc(-c3ccc(C(=O)NC4CCCC4)s3)nc12 [Compound I-31, 5-[7-(2,2-Dimethyl-propionyl)-5H-pyrrolo[2,3-b]pyrazin-2-yl]-thiophene-2-carboxylic acid cyclopentylamide]
287 to 290 °C	CC(C)(C)C(=O)c1c[nH]c2ncc(-c3ccnc(N4CCSCC4)c3)nc12 [Compound I-15, 2,2-Dimethyl-1-[2-(2-thiomorpholin-4-yl-pyridin-4-yl)-5H-pyrrolo[2,3-b]pyrazin-7-yl]-propan-1-one]
215 to 223.6 °C	COc1cncc(-c2cnc3[nH]cc(C(=O)C(C)(C)C)c3n2)c1 [Compound I-6, 1-[2-(5-Methoxy-pyridin-3-yl)-5H-pyrrolo[2,3-b]pyrazin-7-yl]-2,2-dimethyl-propan-1-one]
275.1 to 276.4 °C	CC(C)(C)C(=O)c1c[nH]c2ncc(-c3ccnc(N4CCCC4)c3)nc12 [Compound I-11, 2,2-Dimethyl-1-[2-(2-pyrrolidin-1-yl-pyridin-4-yl)-5H-pyrrolo[2,3-b]pyrazin-7-yl]-propan-1-one]
250 to 251 °C	CC(C)(C)C(=O)c1c[nH]c2ncc(-c3ccnc(N4CCCCC4)c3)nc12 [Compound I-13, 2,2-Dimethyl-1-[2-(3,4,5,6-tetrahydro-2H-[1,2′]bipyridinyl-4′-yl)-5H-pyrrolo[2,3-b]pyrazin-7-yl]-propan-1-one]
257 to 260 °C	CC(=O)N1CCN(c2cc(-c3cnc4[nH]cc(C(=O)C(C)(C)C)c4n3)ccn2)CC1 [Compound I-5, 1-{2-[2-(4-Acetyl-piperazin-1-yl)-pyridin-4-yl]-5H-pyrrolo[2,3-b]pyrazin-7-yl}-2,2-dimethyl-propan-1-one]

Molecular target: JAK3: Recombinant human kinase domain (Homo sapiens, UniProt P52333)
Test: Determination of IC50 of Janus Kinase (JAK) Inhibition (radioactive end-point 33P-ATP kinase assay)
Experimental: Assay conditions used are described below: • Assay Buffer: JAK Kinase Buffer: 50 mM Hepes [pH 7.2], 10 mM MgCl2, 1 mM DTT, 1 mg/ml BSA. The assay is carried out in this buffer. • Assay Format The kinase activity of all three JAK kinases is measured using a radioactive, end-point assay and with trace amounts of ^33P-ATP. The assays are carried out in 96-well polypropylene plates.
All concentrations are final in the reaction mixture and all incubations are carried at room temperature. […] Final concentration of DMSO in the reaction is 10%. • 2) Compounds are preincubated with enzyme (0.5 nM JAK3 (commercially available), 0.2 nM JAK3 (prepared), 1 nM JAK2, 5 nM JAK1) for 10 minutes. • 3) Reactions are initiated by the addition of a cocktail of the two substrates (ATP and peptide premixed in the JAK Kinase Buffer). […] JAK1 assay is carried out at an ATP concentration of 10 uM and a peptide concentration of 50 uM. • 4) The duration of the assay for JAK2 and JAK3 is 20 minutes. JAK1 assay is carried out for 40 minutes. With all three enzymes, reactions are terminated by the addition of 0.5M EDTA to a final concentration of 100 mM. • 5) 25 ul of terminated reactions are transferred to 150 ul of a 7.5% (v/v) slurry of streptavidin-coated sepharose beads in MgCl2- and CaCl2-free 1× Phosphate Buffered Saline containing 50 mM of EDTA in 96-well, 1.2 um MultiScreen-BV filter plates. • 6) After a 30-minute incubation, the beads are washed under vacuum with the following buffers: • a. 3 to 4 washes with 200 ul of 2M NaCl. • b. 3 to 4 washes with 200 ul of 2M NaCl plus 1% (v/v) phosphoric acid. • c. 1 wash with water. • 7) Washed plates are dried in a 60° C. oven for between 1 to 2 hours. • 8) 70 ul of Microscint 20 scintillation fluid is added to each well of filter plates and after at least 30 minutes of incubation, radioactive counts are measured in a Perkinelmer microplate scintillation counter.

Sequence of JAK3: Recombinant human kinase domain (P52333 822-1111 limits assumed): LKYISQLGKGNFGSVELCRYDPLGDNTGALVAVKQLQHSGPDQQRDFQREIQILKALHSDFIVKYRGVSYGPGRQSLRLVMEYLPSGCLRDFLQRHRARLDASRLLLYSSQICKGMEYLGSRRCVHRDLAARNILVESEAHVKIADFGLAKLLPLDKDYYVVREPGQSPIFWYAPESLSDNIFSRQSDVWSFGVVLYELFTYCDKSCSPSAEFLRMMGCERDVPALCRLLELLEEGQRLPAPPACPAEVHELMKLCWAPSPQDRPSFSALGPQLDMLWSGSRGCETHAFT

IC50	SMILES
28.3 nM	CC1(C(=O)c2c[nH]c3ncc(-c4ccc(C(=O)N5CCC(O)C5)s4)nc23)CCCCC1 (stereo not drawn) [Compound I-74, {2-[5-(3-Hydroxy-pyrrolidine-1-carbonyl)-thiophen-2-yl]-5H-pyrrolo[2,3-b]pyrazin-7-yl}-(1-methyl-cyclohexyl)-methanone]
44.7 nM	CN(CC#N)C(=O)c1cc(-c2cnc3[nH]cc(C(=O)C4(C)CCCCC4)c3n2)cs1 [Compound I-40, 4-[7-(1-Methyl-cyclohexanecarbonyl)-5H-pyrrolo[2,3-b]pyrazin-2-yl]-thiophene-2-carboxylic acid cyanomethyl-methyl-amide]
18 nM	CN(CCO)C(=O)c1ccc(-c2cnc3[nH]cc(C(=O)C4(C)CCCCC4)c3n2)s1 [Compound I-73, 5-[7-(1-Methyl-cyclohexanecarbonyl)-5H-pyrrolo[2,3-b]pyrazin-2-yl]-thiophene-2-carboxylic acid (2-hydroxy-ethyl)-methyl-amide]
